According to patent publication US11780826B2 (Amgen Inc., priority 2017, dated 2023):

Tested on: Bovine cardiac myofibrils
Assay: In vitro model of dose-dependent myofibril ATPase modulation (AC1.4, pyruvate kinase/lactate dehydrogenase-coupled ATPase assay at pCa25)
Assay type: biochemical
Conditions: concentration at which ATPase activity was 1.4-fold higher than the bottom of the dose curve, mean of a minimum of two independent tests
Method in brief: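 Bovine cardiac myofibrils, detergent-treated; 0.25-1.0 mg/ml. Buffer: K-PIPES 12 mM, MgCl2 2 mM, DTT 1 mM, BSA 0.1 mg/ml, pH 6.80, 22° C; Ca2+ set by EGTA/CaCl2. ATP 1 mM, NADH/PEP-coupled, A340. 4-parameter fit; n≥2.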

Cc1cc(C(=O)N2[C@@H](C(=O)N[C@@H](c3ccc(C(F)(F)F)cc3F)C3CC3)C[C@H]3C[C@H]32)c(NC2CCC2)cn1 [Example 230, (1R,3R,5R)-2-((5-(cyclobutylamino)-2-methyl-4-pyridinyl)carbonyl)-N-((R)-cyclopropyl(2-fluoro-4-(trifluoromethyl)phenyl)methyl)-2-azabicyclo[3.1.0]hexane-3-carboxamide]
AC1.4: 0.5074 µM

N#CC1CN(S(=O)(=O)N2CCC[C@H](C(=O)N3CCC[C@@H]3C(=O)NCc3cc(Cl)ccc3Cl)C2)C1 [Example 651, 1-(((3S)-1-((3-cyano-1-azetidinyl)sulfonyl)-3-piperidinyl)carbonyl)-N-(2,5-dichlorobenzyl)-D-prolinamide]
AC1.4: 4.4705 µM

COC(=O)CS(=O)(=O)c1cccc(C(=O)N2[C@@H](C(=O)N[C@@H](c3cc(F)c(C(F)(F)F)cc3F)C3CC3)C[C@H]3C[C@H]32)c1 [Example 80, methyl((3-(((1R,3R,5R)-3-(((R)-cyclopropyl(2,5-difluoro-4-(trifluoromethyl)phenyl)methyl)carbamoyl)-2-azabicyclo[3.1.0]hexan-2-yl)carbonyl)phenyl)sulfonyl)acetate]
AC1.4: 0.1046 µM

O=C(NCc1ccc(C(F)(F)F)cc1)[C@H]1CCCN1C(=O)[C@H]1CCCN(S(=O)(=O)N2CC(Oc3ccncc3)C2)C1 [Example 580, 1-(((3S)-1-((3-(4-pyridinyloxy)-1-azetidinyl)sulfonyl)-3-piperidinyl)carbonyl)-N-(4-(trifluoromethyl)benzyl)-D-prolinamide]
AC1.4: 3.3545 µM

CS(=O)(=O)c1cccc(C(=O)N2CCC[C@@H]2C(=O)N[C@@H](c2ccc(C(F)(F)F)c(F)c2)C2COC2)c1 [Example 179, N-((R)-(3-fluoro-4-(trifluoromethyl)phenyl)(3-oxetanyl)methyl)-1-(3-(methylsulfonyl)benzoyl)-D-prolinamide]
AC1.4: 0.3231 µM

N#Cc1cccc(C(=O)N2CCC[C@@H]2C(=O)N[C@@H](c2ccc(C(F)(F)F)cc2F)C2CC2)c1 [Example 701, 1-(3-cyanobenzoyl)-N-((R)-cyclopropyl(2-fluoro-4-(trifluoromethyl)phenyl)methyl)-D-prolinamide]
AC1.4: 5.643 µM

C[C@@H](NC(=O)[C@H]1CCCN1C(=O)c1cccc(S(=O)(=O)N2CC(C#N)C2)c1)c1ccc(Cl)cc1 [Example 71, N-((1R)-1-(4-chlorophenyl)ethyl)-1-((3-((3-cyano-1-azetidinyl)sulfonyl)phenyl)carbonyl)-D-prolinamide]
AC1.4: 0.08898 µM

CS(=O)(=O)c1cccc(C(=O)N2CSC[C@@H]2C(=O)N[C@@H](c2ccc(C(F)(F)F)cc2F)C2CC2)c1 [Example 129, (4S)-N-((R)-cyclopropyl(2-fluoro-4-(trifluoromethyl)phenyl)methyl)-3-(3-(methylsulfonyl)benzoyl)-1,3-thiazolidine-4-carboxamide]
AC1.4: 0.2119 µM

CCS(=O)(=O)c1cc(C(=O)N2[C@@H](C(=O)N[C@@H](c3cc(F)c(Cl)cc3F)C3CC3)C[C@H]3C[C@H]32)ccn1 [Example 389, (1R,3R,5R)-N-((R)-(4-chloro-2,5-difluorophenyl)(cyclopropyl)methyl)-2-((2-(ethylsulfonyl)-4-pyridinyl)carbonyl)-2-azabicyclo[3.1.0]hexane-3-carboxamide]
AC1.4: 1.2325 µM

N#CC1CN(S(=O)(=O)N2CCC[C@H](C(=O)N3CCC[C@@H]3C(=O)N[C@@H](c3cc(F)c(C(F)(F)F)cc3F)C3CC3)C2)C1 [Example 35, 1-(((3S)-1-((3-cyano-1-azetidinyl)sulfonyl)-3-piperidinyl)carbonyl)-N-((R)-cyclopropyl(2,5-difluoro-4-(trifluoromethyl)phenyl)methyl)-D-prolinamide]
AC1.4: 0.0372 µM

CC(=O)NC1CN(S(=O)(=O)N2CCC[C@H](C(=O)N3CCC[C@@H]3C(=O)NCc3ccc(C(F)(F)F)cc3)C2)C1 [Example 782, 1-(((3S)-1-((3-(acetylamino)-1-azetidinyl)sulfonyl)-3-piperidinyl)carbonyl)-N-(4-(trifluoromethyl)benzyl)-D-prolinamide]
AC1.4: 8.6395 µM

C[C@@H](NC(=O)[C@H]1CCCN1C(=O)c1cccc(S(C)(=O)=O)c1)c1cc(F)c(Cl)cc1F [Example 636, N-((1R)-1-(4-chloro-2,5-difluorophenyl)ethyl)-1-(3-(methylsulfonyl)benzoyl)-D-prolinamide]
AC1.4: 3.919 µM

COc1ccc(F)cc1C(C)NC(=O)[C@H]1CCCN1C(=O)[C@H]1CCCN(S(=O)(=O)N2CC(C#N)C2)C1 (stereo partly drawn) [Example 633, (2R)-1-((S)-1-((3-cyanoazetidin-1-yl)sulfonyl)piperidine-3-carbonyl)-N-(1-(5-fluoro-2-methoxyphenyl)ethyl)pyrrolidine-2-carboxamide]
AC1.4: 4.0935 µM

O=C(N[C@@H](c1ccc(C(F)(F)F)cc1F)C1CC1)[C@H]1CCCN1C(=O)c1cccc(C2(F)CN(S(=O)(=O)C3COC3)C2)c1 [Example 451, N-((R)-cyclopropyl(2-fluoro-4-(trifluoromethyl)phenyl)methyl)-1-(3-(3-fluoro-1-(3-oxetanylsulfonyl)-3-azetidinyl)benzoyl)-D-prolinamide]
AC1.4: 1.8635 µM

O=C(NCc1ccc(C(F)(F)F)cc1)[C@H]1CCCN1C(=O)[C@H]1CCCN(S(=O)(=O)N2CC(Cc3ccc(Cl)cc3)C2)C1 [Example 699, 1-(((3S)-1-((3-(4-chlorobenzyl)-1-azetidinyl)sulfonyl)-3-piperidinyl)carbonyl)-N-(4-(trifluoromethyl)benzyl)-D-prolinamide]
AC1.4: 5.5865 µM

N#CC1CN(S(=O)(=O)N2CCC[C@H](C(=O)N3C[C@@H](O)C[C@@H]3C(=O)NCc3ccc(C(F)(F)F)cc3)C2)C1 [Example 581, (4S)-1-(((3S)-1-((3-cyano-1-azetidinyl)sulfonyl)-3-piperidinyl)carbonyl)-4-hydroxy-N-(4-(trifluoromethyl)benzyl)-D-prolinamide]
AC1.4: 3.364 µM

Cc1ccc(Cl)c(CNC(=O)[C@H]2CCCN2C(=O)[C@H]2CCCN(S(=O)(=O)N3CC(C#N)C3)C2)c1 [Example 660, N-(2-chloro-5-methylbenzyl)-1-(((3S)-1-((3-cyano-1-azetidinyl)sulfonyl)-3-piperidinyl)carbonyl)-D-prolinamide]
AC1.4: 4.606 µM

N#CC1CN(S(=O)(=O)N2CCC[C@H](C(=O)N3CCC[C@@H]3C(=O)NC3CCC3C(F)(F)F)C2)C1 (stereo partly drawn) [Example 799, (2R)-1-((S)-1-((3-cyanoazetidin-1-yl)sulfonyl)piperidine-3-carbonyl)-N-(2-(trifluoromethyl)cyclobutyl)pyrrolidine-2-carboxamide]
AC1.4: 9.4535 µM

CS(=O)(=O)N1CC(F)(c2cccc(C(=O)N3CCC[C@@H]3C(=O)N[C@@H](c3ccc(C(F)(F)F)cc3F)C3CC3)c2)C1 [Example 286, N-((R)-cyclopropyl(2-fluoro-4-(trifluoromethyl)phenyl)methyl)-1-(3-(3-fluoro-1-(methylsulfonyl)-3-azetidinyl)benzoyl)-D-prolinamide]
AC1.4: 0.7437 µM

N#CC1CN(S(=O)(=O)N2CCC[C@H](C(=O)N3CCC[C@@H]3C(=O)N[C@H](c3ccc(C(F)(F)F)cc3)C3CC3)C2)C1 [Example 107, 1-(((3S)-1-((3-cyano-1-azetidinyl)sulfonyl)-3-piperidinyl)carbonyl)-N-((S)-cyclopropyl(4-(trifluoromethyl)phenyl)methyl)-D-prolinamide]
AC1.4: 0.1642 µM

NS(=O)(=O)c1cccc(C(=O)N2C[C@H]3C[C@H]3[C@@H]2C(=O)N[C@@H](c2cc(F)c(Cl)cc2F)C2CC2)c1 [Example 340, (1R,2R,5S)-N-((R)-(4-chloro-2,5-difluorophenyl)(cyclopropyl)methyl)-3-(3-sulfamoylbenzoyl)-3-azabicyclo[3.1.0]hexane-2-carboxamide]
AC1.4: 0.8898 µM

O=C(N[C@@H](c1cc(F)c(Cl)cc1F)C1CC1)[C@H]1C[C@H]2C[C@H]2N1C(=O)c1ccnc(C(F)(F)F)c1 [Example 231, (1R,3R,5R)-N-((R)-(4-chloro-2,5-difluorophenyl)(cyclopropyl)methyl)-2-((2-(trifluoromethyl)-4-pyridinyl)carbonyl)-2-azabicyclo[3.1.0]hexane-3-carboxamide]
AC1.4: 0.5188 µM

CC(C)c1cc(C(=O)N2[C@@H](C(=O)N[C@@H](c3ccc(C(F)(F)F)cc3F)C3COC3)C[C@H]3C[C@H]32)ccn1 [Example 748, (1R,3R,5R)-N-((R)-(2-fluoro-4-(trifluoromethyl)phenyl)(3-oxetanyl)methyl)-2-((2-(2-propanyl)-4-pyridinyl)carbonyl)-2-azabicyclo[3.1.0]hexane-3-carboxamide]
AC1.4: 7.314 µM

C[C@@H](NC(=O)[C@H]1CCCN1C(=O)[C@H]1CCCN(S(=O)(=O)N2CC(C#N)C2)C1)c1ccc(Cl)c(F)c1 [Example 69, N-((1R)-1-(4-chloro-3-fluorophenyl)ethyl)-1-(((3S)-1-((3-cyano-1-azetidinyl)sulfonyl)-3-piperidinyl)carbonyl)-D-prolinamide]
AC1.4: 0.08835 µM

N#CC1CN(S(=O)(=O)N2CCN[C@H](C(=O)N3CCC[C@@H]3C(=O)NCc3cc(Cl)cc(Cl)c3)C2)C1 [Example 790, 1-(((2S)-4-((3-cyano-1-azetidinyl)sulfonyl)-2-piperazinyl)carbonyl)-N-(3,5-dichlorobenzyl)-D-prolinamide]
AC1.4: 8.9725 µM

O=C(N[C@@H](c1cc(F)c(C(F)(F)F)cc1F)[C@H]1C[C@H](O)C1)[C@H]1C[C@H]2C[C@H]2N1C(=O)c1ccnc(C(F)F)c1 [Example 831, (1R,3R,5R)-N-((R)-(2,5-difluoro-4-(trifluoromethyl)phenyl)((lr,3R)-3-hydroxycyclobutyl)methyl)-2-(2-(difluoromethyl)isonicotinoyl)-2-azabicyclo[3.1.0]hexane-3-carboxamide]
AC1.4: 0.6115 µM
